# Source: patent US6919342B2, “Triazole compounds suitable for treating disorders that respond to modulation of the dopamine D3 receptor” (Abbott GmbH & Co. KG, priority 2003, dated 2005)
# Legend:
# [1] = target: T1, human dopamine D2L receptors (long isoform) (Homo sapiens, UniProt P14416); test: Dopamine D2L receptor binding, displacement of [125I] iodospiperone; settings: membranes of HEK-293 cells, 0.01 nM [125I] iodospiperone, 25° C., 60 minutes; read-out: Ki D2
# T1 construct: expressed in transfected cells; host or cells: HEK-293
# Protocol: (§1) The substance to be tested was either dissolved in methanol/Chremophor® (BASF-AG) or in dimethyl sulfoxide and then diluted with water to the desired concentration.
# (§2) Each assay mixture was run in triplicate.
# The incubation buffer contained 50 mM tris, 120 mM NaCl, 5 mM KCl, 2 mM CaCl2, 2 mM MgCl2 and 0.1% bovine serum albumin. The buffer was adjusted to pH 7.4 with HCl.
# (§3) After having been incubated at 25° C. for 60 minutes, the assay mixtures were filtered through a Wathman GF/B glass fiber filter under vacuum using a cell collecting device. The filters were transferred to scintillation viols using a filter transfer system. After 4 ml of Ultima Gold® (Packard) have been added, the samples were shaken for one hour and the radioactivity was then counted in a Beta-Counter (Packard, Tricarb 2000 or 2200CA). The cpm values were converted into dpm using a standard quench series and the program belonging to the instrument.
# (§4) The inhibition curves were analyzed by means of iterative nonlinear regression analysis using the Statistical Analysis System (SAS) which is similar to the “LIGAND” program described by Munson and Rodbard.
# [2] = target: T2, human dopamine D3 receptors (Homo sapiens, UniProt P35462); test: Dopamine D3 receptor binding, displacement of [125I]-iodosulpride; settings: for Ki: membranes of HEK-293 cells, 0.1 nM [125I]-iodosulpride, 25° C., 60 minutes; for Selectivity [Ki(D2)/Ki(D3)]: ratio of Ki D2 to Ki D3
# T2 construct: expressed in transfected cells; host or cells: HEK-293
# Protocol: as §1, §2
# The incubation buffer contained 50 mM tris, 120 mM NaCl, 5 mM KCl, 2 mM CaCl2, 2 mM MgCl2 and 0.1% bovine serum albumin, 10 μM quinolone and 0.1% ascorbic acid (prepared fresh daily). The buffer was adjusted to pH 7.4 with HCl.
# as §3, §4
# T2 sequence (P35462 whole entry): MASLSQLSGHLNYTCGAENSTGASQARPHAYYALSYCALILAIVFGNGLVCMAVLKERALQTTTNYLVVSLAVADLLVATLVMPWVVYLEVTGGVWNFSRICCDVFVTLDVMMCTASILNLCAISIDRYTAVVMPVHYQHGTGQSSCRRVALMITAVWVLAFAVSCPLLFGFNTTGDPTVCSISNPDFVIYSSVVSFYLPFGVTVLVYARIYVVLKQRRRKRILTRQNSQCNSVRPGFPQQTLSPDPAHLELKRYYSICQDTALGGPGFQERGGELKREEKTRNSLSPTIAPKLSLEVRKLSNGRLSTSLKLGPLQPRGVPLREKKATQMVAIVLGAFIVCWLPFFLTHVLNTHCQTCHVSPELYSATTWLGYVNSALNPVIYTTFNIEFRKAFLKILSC
# T1 sequence (P14416 whole entry, canonical isoform): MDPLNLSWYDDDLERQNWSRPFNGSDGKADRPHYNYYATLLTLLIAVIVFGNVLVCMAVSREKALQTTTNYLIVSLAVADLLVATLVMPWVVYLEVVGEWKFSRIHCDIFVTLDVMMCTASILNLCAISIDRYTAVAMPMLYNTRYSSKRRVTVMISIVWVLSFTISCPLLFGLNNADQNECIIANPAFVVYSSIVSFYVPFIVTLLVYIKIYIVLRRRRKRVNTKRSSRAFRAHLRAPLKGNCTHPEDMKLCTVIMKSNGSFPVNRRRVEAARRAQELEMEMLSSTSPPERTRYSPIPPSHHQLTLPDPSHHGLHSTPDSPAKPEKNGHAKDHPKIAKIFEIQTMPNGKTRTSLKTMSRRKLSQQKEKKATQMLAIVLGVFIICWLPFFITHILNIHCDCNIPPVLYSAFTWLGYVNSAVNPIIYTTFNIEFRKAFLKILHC
Compound,Ki [1] [nM],Ki [2] [nM],Selectivity [Ki(D2)/Ki(D3)] [2],melting point [°C]
Cn1c(N)nnc1SCCCN1CCN(c2cc(C(C)(C)C)nc(C(C)(C)C)n2)CC1 [A],12,0.7,19,–
Cn1c(N)nnc1SCCCN1CCN(c2cc(C(F)(F)F)nc(C(C)(C)C)n2)CC1 [B],119,3.9,31,–
"Cl.Cn1cnnc1SCCCN1CCN(c2cc(C(F)(F)F)nc(C(C)(C)C)n2)CC1 [Example 6, 2-tert-Butyl-4-{4-[3-(4-methyl-4H-[1,2,4]triazol-3-ylsulfanyl)-propyl]-piperazin-1-yl}-6-trifluoromethyl-pyrimidine hydrochloride]",–,–,–,92 to 95
